Source: patent publication US20260297092A1, “PYRAZOLOPYRIMIDINE DERIVATIVES AS INHIBITORS OF NLRP3” (Takeda Pharmaceutical Company Limited, priority 2023, published 2026)

Assays:
[1] = system: NLRP3 inflammasome (IL-1β production in THP-1 cells); test: IL-1β TR-FRET Assay (percentage of inhibition at 300 nM, 6 μM or 10 μM); format: cell-based, human; conditions: Homo sapiens, LPS priming, ATP activation; for inhibition at 0.3 µM: THP-1, 300 nM, read-out: IL-1β inhibitory rate at 300 nM (%); for inhibition at 6 µM: THP-1, 6 μM, read-out: IL-1β inhibitory rate at 6 μM (%)
Procedure, shortened: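 THP-1 cells were differentiated with 25 ng/mL IFN-γ for 24 h, primed with 50 ng/mL LPS in serum-free medium for 24 h, then given compound for 30 min before 20 mM ATP for 2 h. Supernatant IL-1β was measured by HTRF after 16-24 h at room temperature. Inhibition was normalized between DMSO (high) and 3 μM MCC-950 (low).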

[2] = system: TNF-α (NF-κB pathway, THP-1 cells); test: TNF-α Assay (IC50); format: cell-based, human; conditions: Homo sapiens, 600 ng/mL LPS, 3 hours
Description: TNF-α Assay (Reported as IC50)
Monocytic THP-1 cells (ATCC: TIB-202) were maintained in accordance with the provider's instructions in RPMI media (Life Technologies, Cat #A10491-01); RPMI was supplemented with 10% heat inactivated fetal bovine serum (Hyclone Cat #SH30396.03). The cells were differentiated into macrophages by the addition of 25 ng/mL IFN-7 for 24 hours at 37° C./5% CO2. Media was exchanged with fresh media with no FBS. The cells were plated at 40,000 cells per well in 384-well flat-bottom cell culture plates (Costar 3764) containing compounds (added in 1:1000) in a 1:3.16 serial dilution series in DMSO and were incubated for 30 minutes at 37° C./5% CO2. The NF-κB pathway was activated with the addition of 600 ng/mL LPS and the cells were incubated for 3 hours at 37° C./5% CO2. At the end of the incubation period, supernatant ([…]) was removed, and TNF-alpha were monitored using an ELISA (Human TNF-α ELISA, R&D systems, Cat #DY210) according to the manufacturer's instructions. 100% inhibition is determined with positive control, TPCA-1.
The IC50 values in the TNF-α assay were calculated from a plot of percentage of inhibition versus the inhibitor concentration by a logistics curve fit according to: Y=[Bottom+(Top−Bottom)]/(1+10^[(Log IC50−X)·Hill Slope], where Y was the […] at the inhibitor concentration, X, “Bottom” was the lowest inhibition value, i.e., 0%, “Top” was the maximum inhibition value, i.e., 100%, and the “Hill Slope” described the slope of the sigmoidal curve between the “Bottom” and “Top” values. The curve fitting was conducted with internally developed software.

IC50 [2] | Compound | inhibition at 0.3 µM [1] | inhibition at 10 µM ([1]; THP-1, 10 μM, read-out: IL-1β inhibitory rate at 10 μM (%)) | inhibition at 6 µM [1]
3.4 µM | CO[C@@H]1CCCC[C@@H]1c1nc2nn(-c3c(C)cc(C)cc3O)cc2c(=O)[nH]1 (racemic) [Example 12, racemic mixture of 2-(2-hydroxy-4,6-dimethylphenyl)-6-[(1R,2R)-2-methoxycyclohexyl]-2,5-dihydro-4H-pyrazolo[3,4-d]pyrimidin-4-one and 2-(2-hydroxy-4,6-dimethylphenyl)-6-[(1S,2S)-2-methoxycyclohexyl]-2,5-dihydro-4H-pyrazolo[3,4-d]pyrimidin-4-one] | 99% | – | –
> 30 µM | Cc1cc(C)c(-n2cc3c(=O)[nH]c(OC(C)C)nc3n2)c(O)c1 [Example 7, 2-(2-hydroxy-4,6-dimethylphenyl)-6-[(propan-2-yl)oxy]-2,5-dihydro-4H-pyrazolo[3,4-d]pyrimidin-4-one] | 99% | – | –
> 30 µM | CCOc1nc2nn(-c3c(F)cc(Br)cc3Br)cc2c(=O)[nH]1 [Example 128, 2-(2,4-dibromo-6-fluorophenyl)-6-ethoxy-2,5-dihydro-4H-pyrazolo[3,4-d]pyrimidin-4-one] | 97% | – | –
> 30 µM | Cc1ccc(-n2cc3c(=O)[nH]c(Oc4ccccc4)nc3n2)c(C)c1 [Example 100, 2-(2,4-dimethylphenyl)-6-phenoxy-2,5-dihydro-4H-pyrazolo[3,4-d]pyrimidin-4-one] | – | 100% | –
> 30 µM | Cc1cc(C2CC2)cc(C)c1-n1cc2c(=O)[nH]c(-c3ccn(C)n3)nc2n1 [Example 297, 2-(4-cyclopropyl-2,6-dimethylphenyl)-6-(1-methyl-1H-pyrazol-3-yl)-2,5-dihydro-4H-pyrazolo[3,4-d]pyrimidin-4-one] | – | – | 90%
> 30 µM | CCOc1nc2nn(-c3c(F)cc(OC(F)(F)F)cc3Br)cc2c(=O)[nH]1 [Example 104, 2-[2-bromo-6-fluoro-4-(trifluoromethoxy)phenyl]-6-ethoxy-2,5-dihydro-4H-pyrazolo[3,4-d]pyrimidin-4-one] | 99% | – | –
> 30 µM | CCOc1nc2nn(-c3ncc(Br)cc3C(F)(F)F)cc2c(=O)[nH]1 [Example 148, 2-[5-bromo-3-(trifluoromethyl)pyridin-2-yl]-6-ethoxy-2,5-dihydro-4H-pyrazolo[3,4-d]pyrimidin-4-one] | 96% | – | –
> 30 µM | Cc1cc(C2(F)CC2)cc(C)c1-n1cc2c(=O)[nH]c(COC(F)F)nc2n1 [Example 263, 6-[(difluoromethoxy)methyl]-2-[4-(1-fluorocyclopropyl)-2,6-dimethylphenyl]-2,5-dihydro-4H-pyrazolo[3,4-d]pyrimidin-4-one] | – | – | 104%
> 30 µM | Cc1cc(C)c(-n2cc3c(=O)[nH]c(C4(C)CC4)nc3n2)c(O)c1 [Example 25, 2-(2-hydroxy-4,6-dimethylphenyl)-6-(1-methylcyclopropyl)-2,5-dihydro-4H-pyrazolo[3,4-d]pyrimidin-4-one] | 100% | – | –
> 30 µM | Cc1cc(C)c(-n2cc3c(=O)[nH]c(C4CCCO4)nc3n2)c(O)c1 (stereo not drawn) [Example 29, 2-(2-hydroxy-4,6-dimethylphenyl)-6-(oxolan-2-yl)-2,5-dihydro-4H-pyrazolo[3,4-d]pyrimidin-4-one] | 97% | – | –
> 30 µM | CCOc1nc2nn(-c3c(F)cc(C)cc3Cl)cc2c(=O)[nH]1 [Example 135, 2-(2-chloro-6-fluoro-4-methylphenyl)-6-ethoxy-2,5-dihydro-4H-pyrazolo[3,4-d]pyrimidin-4-one] | 98% | – | –
> 30 µM | CCOc1nc2nn(-c3c(C)ccc(C)c3O)cc2c(=O)[nH]1 [Example 16, 6-ethoxy-2-(2-hydroxy-3,6-dimethylphenyl)-2,5-dihydro-4H-pyrazolo[3,4-d]pyrimidin-4-one] | 101% | – | –
> 30 µM | CCOc1nc2nn(-c3ccc(C)cc3OC(F)F)cc2c(=O)[nH]1 [Example 83, 2-[2-(difluoromethoxy)-4-methylphenyl]-6-ethoxy-2,5-dihydro-4H-pyrazolo[3,4-d]pyrimidin-4-one] | 99% | – | –
> 30 µM | CCOc1nc2nn(-c3c(F)cc(Br)cc3Cl)cc2c(=O)[nH]1 [Example 133, 2-(4-bromo-2-chloro-6-fluorophenyl)-6-ethoxy-2,5-dihydro-4H-pyrazolo[3,4-d]pyrimidin-4-one] | 96% | – | –
> 30 µM | CCOc1nc2nn(-c3ncc(Br)cc3C)cc2c(=O)[nH]1 [Example 150, 2-(5-bromo-3-methylpyridin-2-yl)-6-ethoxy-2,5-dihydro-4H-pyrazolo[3,4-d]pyrimidin-4-one] | 70% | – | –
> 30 µM | CCOc1nc2nn(-c3c(F)cc(OC(F)F)cc3C(F)F)cc2c(=O)[nH]1 [Example 163, 2-[4-(difluoromethoxy)-2-(difluoromethyl)-6-fluorophenyl]-6-ethoxy-2,5-dihydro-4H-pyrazolo[3,4-d]pyrimidin-4-one] | 97% | – | –
> 30 µM | CCOc1nc2nn(-c3c(F)cc(C)cc3C3CC3)cc2c(=O)[nH]1 [Example 105, 2-(2-cyclopropyl-6-fluoro-4-methylphenyl)-6-ethoxy-2,5-dihydro-4H-pyrazolo[3,4-d]pyrimidin-4-one] | 99% | – | –
> 30 µM | CCOc1nc2nn(-c3c(C)cc(C)cc3O)cc2c(=O)[nH]1 [Example 1, 6-ethoxy-2-(2-hydroxy-4,6-dimethylphenyl)-2,5-dihydro-4H-pyrazolo[3,4-d]pyrimidin-4-one] | 100% | – | –
> 30 µM | Cc1cc(C)c(-n2cc3c(=O)[nH]c(Cn4cccn4)nc3n2)c(O)c1 [Example 75, 2-(2-hydroxy-4,6-dimethylphenyl)-6-[(1H-pyrazol-1-yl)methyl]-2,5-dihydro-4H-pyrazolo[3,4-d]pyrimidin-4-one] | 98% | – | –
> 30 µM | Cc1cc(C)c(-n2cc3c(=O)[nH]c(C4CCCCO4)nc3n2)c(O)c1C (stereo not drawn) [Example 81, 2-(2-hydroxy-3,4,6-trimethylphenyl)-6-(oxan-2-yl)-2,5-dihydro-4H-pyrazolo[3,4-d]pyrimidin-4-one] | 97% | – | –
> 30 µM | CCOc1nc2nn(-c3c(C)cc(OC)cc3Br)cc2c(=O)[nH]1 [Example 143, 2-(2-bromo-4-methoxy-6-methylphenyl)-6-ethoxy-2,5-dihydro-4H-pyrazolo[3,4-d]pyrimidin-4-one] | 93% | – | –
> 30 µM | COC(C)Cc1nc2nn(-c3c(C)cc(C)cc3O)cc2c(=O)[nH]1 (stereo not drawn) [Example 27, 2-(2-hydroxy-4,6-dimethylphenyl)-6-(2-methoxypropyl)-2,5-dihydro-4H-pyrazolo[3,4-d]pyrimidin-4-one] | 94% | – | –
> 30 µM | CCOc1nc2nn(-c3ccc(C4CC4)cc3O)c(C)c2c(=O)[nH]1 [Example 48, 2-(4-cyclopropyl-2-hydroxyphenyl)-6-ethoxy-3-methyl-2,5-dihydro-4H-pyrazolo[3,4-d]pyrimidin-4-one] | 100% | – | –
> 30 µM | CCOc1nc2nn(-c3c(C)cc(C4CC4)cc3COC)cc2c(=O)[nH]1 [Example 164, 2-[4-cyclopropyl-2-(methoxymethyl)-6-methylphenyl]-6-ethoxy-2,5-dihydro-4H-pyrazolo[3,4-d]pyrimidin-4-one] | 95% | – | –
> 30 µM | Cc1cc(C2CC2)cc(C)c1-n1cc2c(=O)[nH]c([C@@]3(F)CCCOC3)nc2n1 [Example 260, 2-(4-cyclopropyl-2,6-dimethylphenyl)-6-(3-fluorooxan-3-yl)-2,5-dihydro-4H-pyrazolo[3,4-d]pyrimidin-4-one] | – | – | 96%
> 30 µM | CCOc1nc2nn(-c3c(C)cc(C)cc3C#N)cc2c(=O)[nH]1 [Example 152, 2-(6-ethoxy-4-oxo-4,5-dihydro-2H-pyrazolo[3,4-d]pyrimidin-2-yl)-3,5-dimethylbenzonitrile] | 92% | – | –
> 30 µM | Cc1cc(C)c(-n2cc3c(=O)[nH]c(C4CN(C)CCO4)nc3n2)c(O)c1 (stereo not drawn) [Example 88, 2-(2-hydroxy-4,6-dimethylphenyl)-6-(4-methylmorpholin-2-yl)-2,5-dihydro-4H-pyrazolo[3,4-d]pyrimidin-4-one] | 86% | – | –
